For this test, the target named is T1, ALK2 (Homo sapiens, UniProt Q04771).
T1 construct: purchased ThermoFisher Scientific (Life Technologies)
T1 sequence (Q04771 21-509): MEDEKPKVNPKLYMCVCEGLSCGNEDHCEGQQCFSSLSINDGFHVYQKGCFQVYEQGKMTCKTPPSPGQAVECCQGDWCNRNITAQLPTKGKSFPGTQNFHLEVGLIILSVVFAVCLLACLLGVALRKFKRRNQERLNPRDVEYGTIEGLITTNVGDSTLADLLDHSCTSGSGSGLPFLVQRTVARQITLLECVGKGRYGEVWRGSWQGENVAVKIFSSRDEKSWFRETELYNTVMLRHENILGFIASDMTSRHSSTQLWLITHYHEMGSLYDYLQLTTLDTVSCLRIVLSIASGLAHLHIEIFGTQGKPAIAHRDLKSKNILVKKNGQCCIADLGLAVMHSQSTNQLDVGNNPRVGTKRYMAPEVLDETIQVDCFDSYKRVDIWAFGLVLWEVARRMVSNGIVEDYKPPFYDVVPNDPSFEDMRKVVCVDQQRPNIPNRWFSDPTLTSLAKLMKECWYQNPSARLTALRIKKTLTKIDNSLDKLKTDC
The test can be described thus: LanthaScreen Eu Kinase Binding Assay, ALK2 inhibition. Conditions: 1 micromolar concentration. As for the experimental part:
Biochemical assays to measure the inhibitory effects of the compounds were performed by ThermoFisher Scientific (Life Technologies). ALK2 inhibition was tested using LanthaScreen™ Eu Kinase Binding Assay screening protocol.
(In general: TR-FRET usually uses a lanthanide donor and a delayed reading to cut background.)

On to `C=C(C)c1nc(Nc2cn(-c3cc(OC)c(OC)c(OC)c3)cn2)c2ncccc2n1` [Compound 78c, 2-(prop-1-en-2-yl)-N-(1-(3,4,5-trimethoxyphenyl)-1H-imidazol-4-yl)pyrido[3,2-d]pyrimidin-4-amine], for which the inhibition at 1 µM is over 50%.
The figure for `COc1cc(-n2cnc(Nc3nc(C4CC4)nc4c3cnn4C34CC(C3)C4)c2)cc(OC)c1OC` [Compound 118f, 1-(bicyclo[1.1.1]pentan-1-yl)-6-cyclopropyl-N-(1-(3,4,5-trimethoxyphenyl)-1H-imidazol-4-yl)-1H-pyrazolo[3,4-d]pyrimidin-4-amine] is over 50%.
`COc1ccc2c(Nc3cn(-c4cc(OC)c(OC)c(OC)c4)cn3)nc(C(C)C)nc2c1` [Compound 75a, 2-isopropyl-7-methoxy-N-(1-(3,4,5-trimethoxyphenyl)-1H-imidazol-4-yl)quinazolin-4-amine] displayed an inhibition at 1 µM of over 50%.
The figure for `COc1cc(-n2cnc(Nc3nc(C(C)C)c4ccccc4n3)c2)cc(OC)c1OC` [Compound 56a, 4-isopropyl-N-(1-(3,4,5-trimethoxyphenyl)-1H-imidazol-4-yl)quinazolin-2-amine] is over 50%.
On to `COc1cc(-n2cnc(Nc3nc(C4CCC4)nc4c3cnn4C(C)C)c2)cc(OC)c1OC` [Compound 35d, 6-cyclobutyl-1-isopropyl-N-(1-(3,4,5-trimethoxyphenyl)-1H-imidazol-4-yl)-1H-pyrazolo[3,4-d]pyrimidin-4-amine], for which the inhibition at 1 µM was over 50%.
The figure for `C=C(C)c1nc(Nc2cn(-c3cc(OC)c(OC)c(OC)c3)cn2)c2cnn(C(C)C)c2n1` [Compound 3d, 1-isopropyl-6-(prop-1-en-2-yl)-N-(1-(3,4,5-trimethoxyphenyl)-1H-imidazol-4-yl)-1H-pyrazolo[3,4-d]pyrimidin-4-amine] is over 50%.

One may read the inhibition as how much of the control response was suppressed. A higher inhibition goes with a strong effect.

(Values after patent publication US20240270750A1, “IMIDAZOLE-CONTAINING INHIBITORS OF ALK2 KINASE” (BioCryst Pharmaceuticals, Inc., priority 2021, published 2024).)
